Like-named read-outs stand apart in the source and are kept apart here.
Legend:
[1] = target: BRM (Homo sapiens, UniProt P51531); assay: ATPase catalytic activity assay of BRM (ADP-Glo); type: biochemical; conditions: for IC50: read-out: BRM IC50 (μM)*
How it was run: (§1)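 Luminescence from ADP formed by BRM or BRG-1 ATPase was detected after a two-step ADP-Glo workup at room temperature. The first step, removing unconsumed ATP, took 40 min; the second, converting ADP to ATP for luciferase, took 60 min.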

[2] = target: BRG-1 (Homo sapiens, UniProt P51532); assay: ATPase catalytic activity assay of BRG-1 (ADP-Glo); type: biochemical; conditions: ATPase catalytic activity, ADP-Glo; for IC50: read-out: BRG1 IC50 (μM)*; for Emax: read-out: BRG1 Max % Inhibition
How it was run: as §1

BRG-1, sequence (P51532 whole entry): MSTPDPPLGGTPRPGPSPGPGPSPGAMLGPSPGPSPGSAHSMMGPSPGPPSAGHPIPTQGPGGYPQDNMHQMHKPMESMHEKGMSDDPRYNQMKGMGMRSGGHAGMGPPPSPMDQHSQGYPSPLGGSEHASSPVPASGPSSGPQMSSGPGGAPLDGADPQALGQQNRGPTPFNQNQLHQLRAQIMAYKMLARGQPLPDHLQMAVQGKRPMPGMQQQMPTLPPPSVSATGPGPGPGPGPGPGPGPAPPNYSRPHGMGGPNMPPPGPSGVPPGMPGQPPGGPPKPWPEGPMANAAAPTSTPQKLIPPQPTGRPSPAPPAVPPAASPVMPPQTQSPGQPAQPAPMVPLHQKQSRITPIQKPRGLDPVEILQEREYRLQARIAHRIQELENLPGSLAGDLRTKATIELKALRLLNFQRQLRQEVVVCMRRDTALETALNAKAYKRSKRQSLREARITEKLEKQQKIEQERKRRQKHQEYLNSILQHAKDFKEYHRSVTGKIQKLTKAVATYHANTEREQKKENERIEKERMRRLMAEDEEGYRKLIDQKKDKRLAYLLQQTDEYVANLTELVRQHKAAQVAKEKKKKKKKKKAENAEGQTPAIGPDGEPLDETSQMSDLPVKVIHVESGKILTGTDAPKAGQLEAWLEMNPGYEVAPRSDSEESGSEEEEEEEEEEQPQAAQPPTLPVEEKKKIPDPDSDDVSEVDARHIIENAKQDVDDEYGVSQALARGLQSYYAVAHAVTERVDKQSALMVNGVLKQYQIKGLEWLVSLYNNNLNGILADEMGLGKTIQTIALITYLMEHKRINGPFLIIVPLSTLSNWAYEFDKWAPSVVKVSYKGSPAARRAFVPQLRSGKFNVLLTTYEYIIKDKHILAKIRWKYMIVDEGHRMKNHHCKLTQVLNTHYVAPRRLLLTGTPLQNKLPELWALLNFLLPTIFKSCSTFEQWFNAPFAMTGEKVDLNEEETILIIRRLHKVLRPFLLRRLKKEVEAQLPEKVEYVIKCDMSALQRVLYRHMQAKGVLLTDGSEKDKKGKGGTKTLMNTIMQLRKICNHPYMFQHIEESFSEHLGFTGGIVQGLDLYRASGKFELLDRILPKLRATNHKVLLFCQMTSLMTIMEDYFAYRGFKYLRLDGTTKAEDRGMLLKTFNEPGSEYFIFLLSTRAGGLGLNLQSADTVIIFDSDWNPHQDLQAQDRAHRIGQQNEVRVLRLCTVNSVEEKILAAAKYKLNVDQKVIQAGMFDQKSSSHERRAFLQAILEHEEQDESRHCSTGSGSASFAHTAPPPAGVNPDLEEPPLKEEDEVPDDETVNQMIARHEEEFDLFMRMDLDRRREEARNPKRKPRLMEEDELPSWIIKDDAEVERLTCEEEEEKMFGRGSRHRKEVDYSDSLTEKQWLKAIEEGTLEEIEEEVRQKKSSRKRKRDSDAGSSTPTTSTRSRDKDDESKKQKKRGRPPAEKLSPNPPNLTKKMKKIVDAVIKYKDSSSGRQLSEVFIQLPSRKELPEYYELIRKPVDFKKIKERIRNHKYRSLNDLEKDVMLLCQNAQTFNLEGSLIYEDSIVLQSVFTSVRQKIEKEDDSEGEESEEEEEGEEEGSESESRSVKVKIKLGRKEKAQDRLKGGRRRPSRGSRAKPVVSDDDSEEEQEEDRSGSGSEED
BRM, sequence (P51531 whole entry): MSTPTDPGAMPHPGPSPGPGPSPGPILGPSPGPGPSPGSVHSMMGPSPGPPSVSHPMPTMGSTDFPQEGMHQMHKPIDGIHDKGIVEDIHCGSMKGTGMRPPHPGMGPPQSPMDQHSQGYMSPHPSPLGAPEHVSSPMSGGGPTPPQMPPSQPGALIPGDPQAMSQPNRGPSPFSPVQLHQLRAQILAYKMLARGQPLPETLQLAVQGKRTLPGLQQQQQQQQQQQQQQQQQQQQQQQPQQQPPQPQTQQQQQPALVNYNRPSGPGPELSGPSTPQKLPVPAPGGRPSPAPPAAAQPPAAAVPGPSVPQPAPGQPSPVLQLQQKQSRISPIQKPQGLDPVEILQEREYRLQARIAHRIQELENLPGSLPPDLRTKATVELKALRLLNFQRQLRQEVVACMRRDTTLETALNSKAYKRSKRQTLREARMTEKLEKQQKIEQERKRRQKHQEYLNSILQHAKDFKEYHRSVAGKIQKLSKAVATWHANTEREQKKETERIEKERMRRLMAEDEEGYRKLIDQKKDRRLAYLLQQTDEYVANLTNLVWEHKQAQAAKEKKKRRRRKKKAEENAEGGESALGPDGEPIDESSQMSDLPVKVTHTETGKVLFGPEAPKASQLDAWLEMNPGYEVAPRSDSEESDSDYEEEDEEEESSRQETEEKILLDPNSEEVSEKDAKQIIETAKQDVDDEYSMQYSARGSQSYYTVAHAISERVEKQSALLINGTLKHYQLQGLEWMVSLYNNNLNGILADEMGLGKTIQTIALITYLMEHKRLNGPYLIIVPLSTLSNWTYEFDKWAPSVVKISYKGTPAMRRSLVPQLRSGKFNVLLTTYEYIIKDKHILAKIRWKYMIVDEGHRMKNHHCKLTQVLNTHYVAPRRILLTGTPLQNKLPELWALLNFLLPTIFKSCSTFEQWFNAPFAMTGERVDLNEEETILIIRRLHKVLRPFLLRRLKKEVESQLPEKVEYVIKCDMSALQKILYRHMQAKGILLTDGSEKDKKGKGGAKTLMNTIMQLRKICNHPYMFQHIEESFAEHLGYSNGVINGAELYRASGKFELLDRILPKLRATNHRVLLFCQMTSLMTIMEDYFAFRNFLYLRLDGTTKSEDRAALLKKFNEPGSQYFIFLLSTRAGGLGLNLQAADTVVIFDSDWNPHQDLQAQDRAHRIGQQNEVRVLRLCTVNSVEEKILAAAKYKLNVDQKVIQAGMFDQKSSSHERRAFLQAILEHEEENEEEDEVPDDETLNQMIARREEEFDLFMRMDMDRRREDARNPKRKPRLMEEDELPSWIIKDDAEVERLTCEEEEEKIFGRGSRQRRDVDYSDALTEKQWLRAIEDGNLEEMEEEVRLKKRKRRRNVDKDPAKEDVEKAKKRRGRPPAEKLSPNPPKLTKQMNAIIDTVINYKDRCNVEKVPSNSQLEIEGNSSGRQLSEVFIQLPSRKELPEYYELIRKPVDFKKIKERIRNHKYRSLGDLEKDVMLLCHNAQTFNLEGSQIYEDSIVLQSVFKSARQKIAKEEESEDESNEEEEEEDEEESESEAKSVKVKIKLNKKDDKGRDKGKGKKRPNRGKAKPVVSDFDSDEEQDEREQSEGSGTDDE

SMILES | BRM Max % Inhibition [1] [%] | IC50 [1] [µM] | IC50 [2] [µM] | Emax [2] [%] | BRM Max % Inhibition ([1]; 30 nM BRM, 400 μM ATP) [%] | IC50 ([1]; 30 nM BRM, 400 μM ATP) [µM] | IC50 ([2]; 30 nM BRG-1, 400 μM ATP) [µM] | Emax ([2]; 30 nM BRG-1, 400 μM ATP) [%]
COC1CN(c2cccc(-c3csc(NC(=O)CNC(=O)c4ccc5c(c4)[C@](C)(C#N)COC5)n3)c2)C1 [Compound 390, (R)-4-cyano-N-(2-((4-(3-(3-methoxyazetidin-1-yl)phenyl)thiazol-2-yl)amino)-2-oxoethyl)-4-methylisochromane-6-carboxamide] | >95 | < 0.1 | < 0.1 | > 95 |  |  |  | 
C[C@@]1(CO)CCc2ccc(C(=O)NCC(=O)Nc3nc(-c4cccc(-c5cnccn5)n4)cs3)cc21 [Compound 167, (R)-3-(hydroxymethyl)-3-methyl-N-(2-oxo-2-((4-(6-(pyrazin-2-yl)pyridin-2-yl)thiazol-2-yl)amino)ethyl)-2,3-dihydro-1H-indene-5-carboxamide] | >95 | 0.1 to 1 | > 5 | > 50 |  |  |  | 
Cn1ncc(-c2cccc(-c3csc(NC(=O)CNC(=O)c4cccc(C(C)(C)CO)c4)n3)c2)n1 [Compound 185, 3-(1-hydroxy-2-methylpropan-2-yl)-N-(2-((4-(3-(2-methyl-2H-1,2,3-triazol-4-yl)phenyl)thiazol-2-yl)amino)-2-oxoethyl)benzamide] | >95 | 0.1 to 1 | 1 to 5 | > 80 |  |  |  | 
C[C@@]1(F)COCc2ccc(C(=O)NCC(=O)Nc3nc(-c4cccc(C(F)F)n4)cs3)cc21 [Compound 331, (S)-N-(2-((4-(6-(difluoromethyl)pyridin-2-yl)thiazol-2-yl)amino)-2-oxoethyl)-4-fluoro-4-methylisochromane-6-carboxamide] | >95 | < 0.1 | 0.1 to 1 | > 95 |  |  |  | 
CN1CC=Cc2ccc(C(=O)NCC(=O)Nc3nc(-c4cccc(-c5ccncc5)c4)cs3)cc2S1(=O)=O [Compound 130, 2-methyl-1,1-dioxo-N-[2-oxo-2-[[4-[3-(4-pyridyl)phenyl]thiazol-2-yl]amino]ethyl]-3H-1,2-benzothiazepine-8-carboxamide] | >60 | 0.1 to 1 | > 5 | < 30 |  |  |  | 
O=C(CNC(=O)c1ccc2c(c1)[C@](F)(C(F)F)COC2)Nc1nc(-c2cc(F)cc(N3CCC3)c2)cs1 [Compound 276, (R)-N-(2-((4-(3-(azetidin-1-yl)-5-fluorophenyl)thiazol-2-yl)amino)-2-oxoethyl)-4-(difluoromethyl)-4-fluoroisochromane-6-carboxamide] | >95 | < 0.1 | < 0.1 | > 95 |  |  |  | 
O=C(CNC(=O)c1cccc(C2(C(F)F)COC2)c1)Nc1nc(-c2cccc(C(F)F)c2)cs1 [Compound 344, 3-(3-(difluoromethyl)oxetan-3-yl)-N-(2-((4-(3-(difluoromethyl)phenyl)thiazol-2-yl)amino)-2-oxoethyl)benzamide] | >95 | 0.1 to 1 | 0.1 to 1 | > 95 |  |  |  | 
CC(C)S(=O)(=O)c1cccc(C(=O)NCC(=O)Nc2nc(-c3cccc(-c4cc(CO)cc(C(F)(F)F)c4)c3)cs2)c1 [Compound 27, N-(2-((4-(3′-(hydroxymethyl)-5′-(trifluoromethyl)-[1,1′-biphenyl]-3-yl)thiazol-2-yl)amino)-2-oxoethyl)-3-(isopropylsulfonyl)benzamide] | >95 | < 0.1 | 0.1 to 1 |  |  |  |  | 
COc1cc(F)cc(-c2csc(NC(=O)CNC(=O)c3ccc4c(c3)[C@](C)(C#N)COC4)n2)c1 [Compound 377, (R)-4-cyano-N-(2-((4-(3-fluoro-5-methoxyphenyl)thiazol-2-yl)amino)-2-oxoethyl)-4-methylisochromane-6-carboxamide] | >95 | < 0.1 | < 0.1 | > 95 |  |  |  | 
C[C@@H]1CN(c2cccc(-c3csc(NC(=O)CNC(=O)c4ccc5c(c4)C(F)(C(F)F)COC5)n3)c2)C[C@H](C)O1 (stereo partly drawn) [Compound 329, 4-(difluoromethyl)-N-(2-((4-(3-((cis)-2,6-dimethylmorpholino)phenyl)thiazol-2-yl)amino)-2-oxoethyl)-4-fluoroisochromane-6-carboxamide] | >95 | < 0.1 | < 0.1 | > 95 |  |  |  | 
COc1nccc(-c2cccc(-c3csc(NC(=O)CNC(=O)c4cccc(S(=O)(=O)C(C)C)c4)n3)n2)n1 [Compound 119, 3-isopropylsulfonyl-N-[2-[[4-[6-(2-methoxypyrimidin-4-yl)-2-pyridyl]thiazol-2-yl]amino]-2-oxo-ethyl]benzamide] | >95 | < 0.1 | 0.1 to 1 | > 80 |  |  |  | 
COc1cccc(-c2csc(NC(=O)CNC(=O)c3cc(F)c4c(c3)[C@](C)(C#N)COC4)n2)c1 [Compound 270, (R)-4-cyano-8-fluoro-N-(2-((4-(3-methoxyphenyl)thiazol-2-yl)amino)-2-oxoethyl)-4-methylisochromane-6-carboxamide] | >95 | < 0.1 | 0.1 to 1 | > 95 |  |  |  | 
C[C@@H]1CN(c2cccc(-c3csc(NC(=O)CNC(=O)c4ccc5c(c4)[C@@H](CO)CC5)n3)n2)C[C@H](C)O1 [Compound 161, (3S)-N-[2-[[4-[6-[(cis)-2,6-dimethylmorpholin-4-yl]-2-pyridyl]thiazol-2-yl]amino]-2-oxo-ethyl]-3-(hydroxymethyl)indane-5-carboxamide] | >95 | < 0.1 | 0.1 to 1 | > 80 |  |  |  | 
Cc1cc(-c2cccc(-c3csc(NC(=O)CNC(=O)c4ccc(C)c(C(C)(C)CN)c4)n3)n2)ncn1 [Compound 201, 3-(2-amino-1,1-dimethyl-ethyl)-4-methyl-N-[2-[[4-[6-(6-methylpyrimidin-4-yl)-2-pyridyl]thiazol-2-yl]amino]-2-oxo-ethyl]benzamide] | >95 | < 0.1 | 0.1 to 1 | > 90 |  |  |  | 
C[C@@H]1CN(c2cccc(-c3csc(NC(=O)CNC(=O)c4ccc5c(c4)C(C#N)(CO)CCO5)n3)c2)C[C@H](C)O1 (stereo partly drawn) [Compound 444, 4-cyano-N-(2-((4-(3-((cis)-2,6-dimethylmorpholino)phenyl)thiazol-2-yl)amino)-2-oxoethyl)-4-(hydroxymethyl)chromane-6-carboxamide] |  |  |  |  | >95 | < 0.1 | 0.1 to 1 | > 95
Cc1nccc(-c2cccc(-c3csc(NC(=O)CNC(=O)c4ccc5c(c4)[C@](C)(C#N)CC5)n3)n2)n1 [Compound 249, (3R)-3-cyano-3-methyl-N-[2-[[4-[6-(2-methylpyrimidin-4-yl)-2-pyridyl]thiazol-2-yl]amino]-2-oxo-ethyl]indane-5-carboxamide] | >95 | < 0.1 | < 0.1 | > 95 |  |  |  | 
COc1cc(F)cc(-c2csc(NC(=O)CNC(=O)c3ccc4c(c3)[C@](C)(F)COC4)n2)c1 [Compound 337, (S)-4-fluoro-N-(2-((4-(3-fluoro-5-methoxyphenyl)thiazol-2-yl)amino)-2-oxoethyl)-4-methylisochromane-6-carboxamide] | >95 | < 0.1 | < 0.1 | > 95 |  |  |  | 
CC(C)(CO)c1cccc(C(=O)NCC(=O)Nc2nc(-c3cccc(N4CCC(O)CC4)c3)cs2)c1 [Compound 247, 3-(2-hydroxy-1,1-dimethyl-ethyl)-N-[2-[[4-[3-(4-hydroxy-1-piperidyl)phenyl]thiazol-2-yl]amino]-2-oxo-ethyl]benzamide] | >95 | 0.1 to 1 | 0.1 to 1 | > 80 |  |  |  | 
Cc1cc(-c2cccc(-c3csc(NC(=O)CNC(=O)c4ccc5c(c4)[C@](C)(CO)CCC5)n3)c2)cc(C)n1 [Compound 232, (R)-N-(2-((4-(3-(2,6-dimethylpyridin-4-yl)phenyl)thiazol-2-yl)amino)-2-oxoethyl)-8-(hydroxymethyl)-8-methyl-5,6,7,8-tetrahydronaphthalene-2-carboxamide] | >95 | < 0.1 | 0.1 to 1 | > 80 |  |  |  | 
CC(NC(=O)c1ccc2c(c1)[C@](C)(F)COC2)C(=O)Nc1nc(-c2cccc(N3CCC3)c2)cs1 (stereo in doubt) [Compound 319, (S)-N-((R)-1-((4-(3-(azetidin-1-yl)phenyl)thiazol-2-yl)amino)-1-oxopropan-2-yl)-4-fluoro-4-methylisochromane-6-carboxamide] | >95 | < 0.1 | 0.1 to 1 | > 95 |  |  |  | 
C[C@@H]1CN(c2cccc(-c3csc(NC(=O)CNC(=O)c4ccc5c(c4)C(F)(C(F)F)CCO5)n3)n2)C[C@H](C)O1 (stereo in doubt) [Compound 272, (R)-4-(difluoromethyl)-N-(2-((4-(6-((cis)-2,6-dimethylmorpholino)pyridin-2-yl)thiazol-2-yl)amino)-2-oxoethyl)-4-fluorochromane-6-carboxamide] | >95 | < 0.1 | < 0.1 | > 95 |  |  |  | 
Cn1ccc2ccc(-c3csc(NC(=O)CNC(=O)c4ccc5c(c4)C4(CCO5)COC4)n3)cc2c1=O [Compound 382, N-(2-((4-(2-methyl-1-oxo-1,2-dihydroisoquinolin-7-yl)thiazol-2-yl)amino)-2-oxoethyl)spiro[chromane-4,3′-oxetane]-6-carboxamide] | >50 | 0.1 to 1 | > 5 | > 50 |  |  |  | 

— US12685735B2 (Foghorn Therapeutics Inc., priority 2020, dated 2026)
